This note sets out measurements from patent US8552002B2 (Novartis AG, priority 2004, dated 2013).

Holding throughout (type): biochemical
One assay has as its target T1, KDR (Homo sapiens, UniProt P35968).
T1 construct: expressed in transfected cells; host or cells: CHO cells
Kind of assay: Inhibitory activity against KDR (VEGF-R2), in vitro data of Examples 170 and 207. Conditions: 10 μM; Examples 1 to 169; read-out: KDR inhibition at 10 μM. Here is the method:
(Controls comprise medium without test compounds). After two hours of incubation at 37° C., recombinant VEGF is added; the final VEGF concentration is 20 ng/ml. After a further five minutes incubation at 37° C., the cells are washed twice with ice-cold PBS (phosphate-buffered saline) and immediately lysed in 100 μl lysis buffer per well. The lysates are then centrifuged to remove the cell nuclei, and the protein concentrations of the supernatants are determined using a commercial protein assay (BIORAD). The lysates can then either be immediately used or, if necessary, stored at −20° C. […] The plates are then washed and the remaining free protein-binding sites are saturated with 3% TopBlock® (Juro, Cat. # TB232010) in phosphate buffered saline with Tween 20® (polyoxyethylen(20)sorbitane monolaurate, ICI/Uniquema) (PBST). The cell lysates (20 μg protein per well) are then incubated in these plates overnight at 4° C. together with an antiphosphotyrosine antibody coupled with alkaline phosphatase (PY20:AP from Zymed). […] The luminescence is measured in a Packard Top Count Microplate Scintillation Counter.

The target in another assay is T2, Tek (Homo sapiens, UniProt Q02763).
T2 construct: amino acids 773-1124 of the cytoplasmic kinase domain of human Tek, N-terminally fused to GST; made in house; host or cells: Sf9 insect cells (baculovirus)
T2 sequence (Q02763 773-1124): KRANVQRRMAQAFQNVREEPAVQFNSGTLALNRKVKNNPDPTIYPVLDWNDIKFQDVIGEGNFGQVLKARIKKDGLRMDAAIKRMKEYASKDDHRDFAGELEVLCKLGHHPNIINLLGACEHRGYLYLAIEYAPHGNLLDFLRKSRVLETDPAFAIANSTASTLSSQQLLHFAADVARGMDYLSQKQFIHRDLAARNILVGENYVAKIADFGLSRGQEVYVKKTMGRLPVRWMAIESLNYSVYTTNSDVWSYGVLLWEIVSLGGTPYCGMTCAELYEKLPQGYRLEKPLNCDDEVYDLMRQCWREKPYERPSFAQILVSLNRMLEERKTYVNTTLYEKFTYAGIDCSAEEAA
In words: Recombinant GST-Tek (Tie-2) tyrosine kinase assay (33P into poly(Glu,Tyr)). As to conditions: Examples 1 to 169. An excerpt: (Tie-2/Tek): The baculovirus donor vector pFbacG01 was used to generate a recombinant baculovirus that expressed the amino acid region amino acids 773-1124 of the cytoplasmic kinase domain of human Tek, N-terminally fused to GST (Provided by Dr. Marmé, Institute of Molecular Medicine, Freiburg, Germany based on a Research Collaboration). Tek was recloned into the pFbacG01 transfer vector by EcoRI excision and ligation into EcoRI digested pFbacG01 (FBG-Tie2/Tek).
Production of virus: Transfer vectors containing the kinase domains were transfected into the DH10Bac cell line (GIBCO) and plated on selective agar plates. Colonies without insertion of the fusion sequence into the viral genome (carried by the bacteria) are blue. Single white colonies were picked and viral DNA (bacmid) isolated from the bacteria by standard plasmid purification procedures. Sf9 cells or Sf21 cells were then transfected in 25 cm^2 flasks with the viral DNA using Cellfectin reagent.
Determination of small scale protein expression in Sf9 cells: Virus containing media was collected from the transfected cell culture and used for infection to increase its titer. Virus containing media obtained after two rounds of infection was used for large-scale protein expression. For large-scale protein expression 100 cm^2 round tissue culture plates were seeded with 5×10^7 cells/plate and infected with 1 mL of virus-containing media (approx. 5 MOIs). After 3 days the cells were scraped off the plate and centrifuged at 500 rpm for 5 min. Cell pellets from 10-20, 100 cm^2 plates, were resuspended in 50 mL of ice-cold lysis buffer (25 mMTris-HCl, pH7.5, 2 mMEDTA, 1% NP-40, 1 mM DTT, 1 mMP MSF). The cells were stirred on ice for 15 min and then centrifuged at 5000 rpms for 20 min.
Purification of GST-tagged proteins: The centrifuged cell lysate was loaded onto a 2 mL glutathione-sepharose column and washed three times with 10 mL of 25 mM Tris-HCl, pH 7.5, 2 mM EDTA, 1 mM DTT, 200 mM NaCl. The GST-tagged proteins were then eluted by 10 applications (1 mL each) of 25 mM Tris-HCl, pH 7.5, 10 mM reduced-glutathione, 100 mM NaCl, 1 mM DTT, 10% Glycerol and stored at −70° C.
Measure of enzyme activity: Tyrosine protein kinase assays with either purified GST-Ret, GST-Tek or GST-FGFR-3-K650E were carried out in a final volume of 30 μL with final concentrations of the following components: Ret included 15 ng of GST-Ret, 20 mM Tris-HCl, pH 7.5, 1 mM MnCl2, 10 mM MgCl2, 1 mM DTT, 3 μg/mL poly(Glu,Tyr) 4:1, 1% DMSO and 2.0 μM ATP (γ-[^33P]-ATP 0.1 μCi). Tek included 150 ng of GST-Tek, 20 mM Tris-HCl, pH 7.5, 3 mM MnCl2, 3 mM MgCl2, 1 mM DTT, 0.01 mM Na3VO4, 250 μg/mL PEG 20'000, 10 μg/mL poly(Glu,Tyr) 4:1, 1% DMSO and 4.0 μM ATP (γ-[^33P]-ATP 0.1 μCi). FGFR-3-K650E included 10 ng of GST-FGFR-3-K650E, 20 mM Tris-HCl, pH 7.5, 3 mM MnCl2, 3 mM MgCl2, 1 mM DTT, […], 10 μg/mL poly(Glu,Tyr) 4:1, 1% DMSO and 4.0 μM ATP (γ-[^33P]-ATP 0.1 μCi).The activity was assayed in the presence or absence of inhibitors, by measuring the incorporation of ^33P from [γ^33P] ATP into poly(Glu,Tyr) 4:1. The assay was carried out in 96-well plates at ambient temperature for 30 min under conditions described below and terminated by the addition of 50 μL of 125 mM EDTA. Subsequently, 60 μL of the reaction mixture were transferred onto Immobilon-PVDF membrane (Millipore) previously soaked for 5 min with methanol, rinsed with water, then soaked for 5 min with 0.5% H3PO4 and mounted on vacuum manifold with disconnected vacuum source. After spotting all samples, vacuum was connected and each well rinsed with 200 μL 0.5% H3PO4. Membranes were removed and washed 4× on a shaker with 1.0% H3PO4, once with ethanol. Membranes were counted after drying at ambient temperature, mounting in Packard TopCount 96-well frame, and addition of 10 μL/well of Microscint™ (Packard). […]

A further assay has as its target T3, FGFR3 (K650E) (Homo sapiens, UniProt P22607, K650E).
T3 construct: amino acids 411-806 of the cytoplasmic domain of human FGFR-3, N-terminally fused to GST; made in house; host or cells: Sf9 insect cells (baculovirus)
Kind of assay: Recombinant GST-FGFR-3-K650E tyrosine kinase assay (33P into poly(Glu,Tyr)). Conditions: 10 μM; Examples 1 to 169; read-out: FGFR3 (K650E) inhibition at 10 μM.

T1 sequence (P35968 20-1356): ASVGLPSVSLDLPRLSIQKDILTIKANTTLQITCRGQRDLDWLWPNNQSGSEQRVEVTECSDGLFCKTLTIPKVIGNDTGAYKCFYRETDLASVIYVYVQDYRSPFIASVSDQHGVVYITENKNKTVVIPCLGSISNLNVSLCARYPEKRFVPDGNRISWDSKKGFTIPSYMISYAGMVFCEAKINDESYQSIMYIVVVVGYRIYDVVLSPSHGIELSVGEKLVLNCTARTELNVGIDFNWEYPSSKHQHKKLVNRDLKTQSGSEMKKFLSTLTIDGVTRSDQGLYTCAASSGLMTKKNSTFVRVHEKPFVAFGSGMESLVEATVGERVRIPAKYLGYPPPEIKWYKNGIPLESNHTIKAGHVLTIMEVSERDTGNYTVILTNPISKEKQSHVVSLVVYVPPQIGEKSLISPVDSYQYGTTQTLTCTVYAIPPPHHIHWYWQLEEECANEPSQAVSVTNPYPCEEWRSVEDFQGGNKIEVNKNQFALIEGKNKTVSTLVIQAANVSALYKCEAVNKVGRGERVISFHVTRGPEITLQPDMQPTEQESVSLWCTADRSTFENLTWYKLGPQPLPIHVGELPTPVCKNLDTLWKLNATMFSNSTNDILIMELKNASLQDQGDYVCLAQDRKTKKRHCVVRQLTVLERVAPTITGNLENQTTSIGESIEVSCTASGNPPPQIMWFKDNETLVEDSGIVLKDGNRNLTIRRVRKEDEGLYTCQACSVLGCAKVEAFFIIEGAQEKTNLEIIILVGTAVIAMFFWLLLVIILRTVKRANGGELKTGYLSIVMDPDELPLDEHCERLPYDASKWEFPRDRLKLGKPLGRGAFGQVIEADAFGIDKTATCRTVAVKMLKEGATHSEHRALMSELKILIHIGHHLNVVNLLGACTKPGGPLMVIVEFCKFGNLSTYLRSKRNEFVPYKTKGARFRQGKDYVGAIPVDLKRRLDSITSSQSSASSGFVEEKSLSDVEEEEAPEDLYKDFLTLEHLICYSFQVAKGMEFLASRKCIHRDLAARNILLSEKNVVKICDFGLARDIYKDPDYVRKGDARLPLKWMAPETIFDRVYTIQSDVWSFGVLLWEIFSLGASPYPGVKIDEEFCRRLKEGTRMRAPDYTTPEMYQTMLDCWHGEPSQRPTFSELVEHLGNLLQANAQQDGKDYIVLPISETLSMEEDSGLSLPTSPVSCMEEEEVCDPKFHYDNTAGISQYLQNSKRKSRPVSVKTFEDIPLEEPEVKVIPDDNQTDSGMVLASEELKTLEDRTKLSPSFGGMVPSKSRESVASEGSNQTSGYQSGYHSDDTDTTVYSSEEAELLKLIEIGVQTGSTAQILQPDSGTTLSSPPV
T3 sequence (P22607 411-806 K650E): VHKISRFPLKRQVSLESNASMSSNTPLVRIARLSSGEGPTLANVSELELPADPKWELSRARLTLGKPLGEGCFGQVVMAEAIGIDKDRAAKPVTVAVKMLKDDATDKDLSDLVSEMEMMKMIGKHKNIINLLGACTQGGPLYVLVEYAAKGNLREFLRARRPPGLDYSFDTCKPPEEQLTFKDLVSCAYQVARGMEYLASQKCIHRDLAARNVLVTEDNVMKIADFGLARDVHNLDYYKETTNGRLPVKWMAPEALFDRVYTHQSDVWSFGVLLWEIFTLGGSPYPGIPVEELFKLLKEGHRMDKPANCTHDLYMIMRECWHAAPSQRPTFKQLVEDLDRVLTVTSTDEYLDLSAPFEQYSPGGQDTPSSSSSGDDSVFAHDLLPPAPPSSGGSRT

For `COc1ccc(C)c(NC(=O)Nc2cc(Nc3cccc(N4CCN(C)CC4)c3)ncn2)c1` [Example 27, 1-(5-Methoxy-2-methyl-phenyl)-3-{6-[3-(4-methyl-piperazin-1-yl)-phenyl-amino]-pyrimidin-4-yl}-urea], the inhibition at 10 µM on KDR lay within 67 to 100%; on Tek, 12 to 100%; at FGFR3 (K650E), 27 to 100%.
With `COc1ccc(Cl)c(NC(=O)Nc2cc(Nc3cccc(N4CCN(C)CC4)c3)ncn2)c1` [Example 29, 1-(2-Chloro-5-methoxy-phenyl)-3-{6-[3-(4-methyl-piperazin-1-yl)-phenyl-amino]-pyrimidin-4-yl}-urea], the results for the inhibition at 10 µM at KDR, on Tek and at FGFR3 (K650E) were 67 to 100%, 12 to 100% and 27 to 100%, respectively.
For `COc1ccc(NC(=O)Nc2cc(Nc3ccc(N4CCN(C)CC4)cc3)ncn2)cc1OC` [Example 30, 1-(3,4-Dimethoxy-phenyl)-3-{6-[4-(4-methyl-piperazin-1-yl)-phenyl-amino]-pyrimidin-4-yl}-urea], in that order: 67 to 100%, 12 to 100% and 27 to 100%.
For `COc1ccc(NC(=O)Nc2cc(Nc3cccc(N4CCN(C)CC4)c3)ncn2)cc1OC` [Example 31, 1-(3,4-Dimethoxy-Phenyl)-3-{6-[3-(4-methyl-piperazin-1-yl)-phenyl-amino]-pyrimidin-4-yl}-urea], in that order: 67 to 100%, 12 to 100% and 27 to 100%.
The like results for `COc1cc(NC(=O)Nc2cc(Nc3ccc(N4CCN(C)CC4)cc3)ncn2)ccc1F` [Example 32, 1-(4-Fluoro-3-methoxy-phenyl)-3-{6-[4-(4-methyl-piperazin-1-yl)-phenyl-amino]-pyrimidin-4-yl}-urea] were, in that order, 67 to 100%, 12 to 100% and 27 to 100%.
For `COc1cc(NC(=O)Nc2cc(Nc3cccc(N4CCN(C)CC4)c3)ncn2)ccc1F` [Example 33, 1-(4-Fluoro-3-methoxy-phenyl)-3-{6-[3-(4-methyl-piperazin-1-yl)-phenyl-amino]-pyrimidin-4-yl}-urea], the results for the inhibition at 10 µM on KDR, at Tek and at FGFR3 (K650E) were 67 to 100%, 12 to 100% and 27 to 100%, respectively.
The like results for `COc1cc(C)c(NC(=O)Nc2cc(Nc3ccc(N4CCN(C)CC4)cc3)ncn2)cc1OC` [Example 34, 1-(4,5-Dimethoxy-2-methyl-phenyl)-3-{6-[4-(4-methyl-piperazin-1-yl)-phenyl-amino]-pyrimidin-4-yl}-urea] were, in that order, 67 to 100%, 12 to 100% and 27 to 100%.
For the compound `COc1cc(C)c(NC(=O)Nc2cc(Nc3cccc(N4CCN(C)CC4)c3)ncn2)cc1OC` [Example 35], the inhibition at 10 µM on KDR lay in the range of 67 to 100%; at Tek, 12 to 100%; on FGFR3 (K650E) it was 27 to 100%.
With `COc1ccc(Cl)c(NC(=O)Nc2cc(Nc3cccc(OCCN4CCOCC4)c3)ncn2)c1Cl` [Example 37, 1-(2,6-Dichloro-3-methoxy-phenyl)-3-{6-[3-(2-morpholin-4-yl-ethoxy)-phenylamino]-pyrimidin-4-yl}-urea], the figures for the inhibition at 10 µM at KDR, at Tek and on FGFR3 (K650E) were 67 to 100%, 12 to 100% and 27 to 100%, respectively.
For `CNc1cc(NC(=O)Nc2cc(OC)cc(OC)c2Cl)ncn1` [Example 38, 1-(2-Chloro-3,5-dimethoxy-phenyl)-3-(6-methylamino-pyrimidin-4-yl)-urea], in that order: 67 to 100%, 12 to 100% and 27 to 100%.
For `COc1cc(NC(=O)Nc2cc(Nc3ccccc3)ncn2)c(Cl)c(OC)c1` [Example 39, 1-(2-Chloro-3,5-dimethoxy-phenyl)-3-(6-phenylamino-pyrimidin-4-yl)-urea], in that order: 67 to 100%, 12 to 100% and 27 to 100%.
